Each structure is given as a SMILES string.

The term melting point denotes the temperature, or range, at which the solid turns liquid. Take `CCCOCCOc1ccc(-c2ccc3c(c2)C=C(C(=O)Nc2ccc(CN(C)C4CCOCC4)cc2)CCN3c2ccccc2)cc1.Cl`: the melting point fell in the range of 223 to 224 °C.
With `CCOCCN(C)c1ccc(-c2ccc3c(c2)C=C(C(=O)Nc2ccc(CN(C)C4CCOCC4)cc2)CCN3C=O)cc1` [Compound 4, 7-[4-[N-(2-ethoxyethyl)-N-methylamino]phenyl]-1-formyl-N-[4-[[N-methyl-N-(tetrahydro-2H-pyran-4-yl)amino]methyl]phenyl]-2,3-dihydro-1H-1-benzazepine-4-carboxamide] the figure was 157 to 158 °C; with `CCOCCN(CC)c1ccc(-c2ccc3c(c2)C=C(C(=O)Nc2ccc(CN(C)C4CCOCC4)cc2)CCN3C=O)cc1` [Compound 5, 7-[4-[N-(2-ethoxyethyl)-N-ethylamino]phenyl]-1-formyl-N-[4-[[N-methyl-N-(tetrahydro-2H-pyran-4-yl)amino]methyl]phenyl]-2,3-dihydro-1H-1-benzazepine-4-carboxamide], 162 to 164 °C; with `CCCOCCN(CC)c1ccc(-c2ccc3c(c2)C=C(C(=O)Nc2ccc(CN(C)C4CCOCC4)cc2)CCN3C=O)cc1` [Compound 6, 7-[4-[N-ethyl-N-(2-propoxyethyl)amino]phenyl]-1-formyl-N-[4-[[N-methyl-N-(tetrahydro-2H-pyran-4-yl)amino]methyl]phenyl]-2,3-dihydro-1H-1-benzazepine-4-carboxamide], 146 to 149 °C.
`CCOCCCOc1ccc(-c2ccc3c(c2)C=C(C(=O)Nc2ccc(CN(C)C4CCOCC4)cc2)CCN3S(C)(=O)=O)cc1` [Compound 8, 7-[4-(3-ethoxypropoxy)phenyl)-1-methanesulfonyl-N-[4-[[N-methyl-N-(tetrahydro-2H-pyran-4-yl)amino]methyl]phenyl]-2,3-dihydro-1H-1-benzazepine-4-carboxamide] displayed a melting point of 157 to 160 °C.
With `CCOCCOc1ccc(-c2ccc3c(c2)C=C(C(=O)Nc2ccc(CN(C)C4CCOCC4)cc2)CCN3C)cc1` [Compound 9, 7-[4-(2-ethoxyethoxy)phenyl]-1-methyl-N-[4-[[N-methyl-N-(tetrahydro-2H-pyran-4-yl)amino]methyl]phenyl]-2,3-dihydro-1H-1-benzazepine-4-carboxamide] the figure was 122 to 125 °C; with `CCCOCCOc1ccc(-c2ccc3c(c2)C=C(C(=O)Nc2ccc(CN(C)C4CCOCC4)cc2)CCN3C)cc1` [Compound 12, 1-methyl-N-[4-[[N-methyl-N-(tetrahydro-2H-pyran-4-yl)amino]methyl]phenyl]-7-[4-(2-propoxyethoxy)phenyl]-2,3-dihydro-1H-benzazepine-4-carboxamide], 136 to 138 °C.
With `CCOCCCOc1ccc(-c2ccc3c(c2)C=C(C(=O)Nc2ccc(CN(C)C4CCOCC4)cc2)CCN3C)cc1` [Compound 13, 7-[4-(3-ethoxypropoxy)phenyl]-1-methyl-N-[4-[[N-methyl-N-(tetrahydro-2H-pyran-4-yl)amino]methyl]phenyl]-2,3-dihydro-1H-1-benzazepine-4-carboxamide] the figure was 98 to 100 °C.
For `CC(C)OCCOc1ccc(-c2ccc3c(c2)C=C(C(=O)N(c2ccc(CN(C)C4CCOCC4)cc2)S(C)(=O)=O)CCN3)cc1` [Compound 15, 1-methylsulfonyl N-[4-[[N-methyl-N-(tetrahydro-2H-pyran-4-yl)amino]methyl]phenyl]-7-[4-(2-propoxy)ethoxyphenyl]-2,3-dihydro-1H-1-benzazepine-4-carboxamide], the melting point is 161 to 162 °C.
In the case of `CCCCOCCOc1ccc(-c2ccc3c(c2)C=C(C(=O)Nc2ccc(CN(C)C4CCOCC4)cc2)CCN3C)cc1` [Compound 18, 7-[4-(2-butoxyethoxy)phenyl]-1-methyl-N-[4-[[N-methyl-N-(tetrahydro-2H-pyran-4-yl)amino]methyl]phenyl]-2,3-dihydro-1H-1-benzazepine-4-carboxamide], the melting point lay in the range of 107 to 110 °C.
In turn, `CCOCCOc1ccc(-c2ccc3c(c2)C=C(C(=O)Nc2ccc(CN(C)C4CCOCC4)cc2)CCN3C=O)cc1Cl` [Compound 21, 7-[3-chloro4-(2-ethoxy)ethoxyphenyl]-1-formyl-N-[4-[[N-methyl-N-(tetrahydro-2H-pyran-4-yl)amino]methyl]phenyl]-2,3-dihydro-1H-1-benzazepine-4-carboxamide] returned a melting point of 198 to 200 °C.
The value for `CN1CCC(C(=O)Nc2ccc(CN(C)C3CCOCC3)cc2)=Cc2cc(-c3ccc4c(c3)OCCO4)ccc21` [Compound 24, 7-(2,3-dihydro-1,4-benzodioxin-6-yl)-1-methyl-N-[4-[[N-methyl-N-(tetrahydro-2H-pyran-4-yl)amino]methyl]phenyl]-2,3-dihydro-1H-1-benzazepine-4-carboxamide] was 164 to 165 °C; that for `CCCN1CCC(C(=O)Nc2ccc(CN(C)C3CCOCC3)cc2)=Cc2cc(-c3ccc(OCCOCC)cc3)ccc21` [Compound 25, 7-[4-(2-ethoxyethoxy)phenyl]-N-[4-[[N-methyl-N-(tetrahydro-2H-pyran-4-yl)amino]methyl]phenyl]-1-propyl-2,3-dihydro-1H-1-benzazepine-4-carboxamide] was 144 to 147 °C; that for `CCCCOCCOc1ccc(-c2ccc3c(c2)C=C(C(=O)Nc2ccc(CN(C)C4CCOCC4)cc2)CCN3)cc1` [Compound 28, 7-[4-(2-butoxyethoxy)phenyl]-N-[4-[[N-methyl-N-(tetrahydro-2H-pyran-4-yl)amino]methyl]phenyl]-2,3-dihydro-1H-1-benzazepine-4-carboxamide] was 119 to 123 °C.
Turning to `CCCOCCOc1ccc(-c2ccc3c(c2)C=C(C(=O)Nc2ccc(CN(C)C4CCOCC4)cc2)CCN3C(=O)CC)cc1` [Compound 29, 1-propionyl-7-[4-(2-propoxyethoxy)phenyl]-N-[4-[[N-methyl-N-(tetrahydro-2H-pyran-4-yl)amino]methyl]phenyl]-2,3-dihydro-1H-1-benzazepine-4-carboxamide], the melting point lay in the range of 167 to 169 °C.
With `CCCCOCCOc1ccc(-c2ccc3c(c2)C=C(C(=O)Nc2ccc(CN(C)C4CCOCC4)cc2)CCN3C2CC2)cc1` [Compound 31, 7-[4-(2-butoxyethoxy)phenyl]-1-cyclopropyl-N-[4-[[N-methyl-N-(tetrahydro-2H-pyran-4-yl)amino]methyl]phenyl]-2,3-dihydro-1H-1-benzazepine-4-carboxamide] the figure was 117 to 120 °C; with `CCCCOCCOc1ccc(-c2ccc3c(c2)C=C(C(=O)Nc2ccc(CN(C)C4CCOCC4)cc2)CCN3CC2CCCCC2)cc1` [Compound 34, 7-[4-(2-butoxyethoxy)phenyl]-1-cyclohexylmethyl-N-[4-[[N-methyl-N-(tetrahydro-2H-pyran-4-yl)amino]methyl]phenyl]-2,3-dihydro-1H-1-benzazepine-4-carboxamide], 115 to 117 °C; with `CCCCOCCOc1ccc(-c2ccc3c(c2)C=C(C(=O)Nc2ccc(CN(C)C4CCOCC4)cc2)CCN3c2cccc(OC)c2)cc1` [Compound 40, 7-[4-(2-butoxyethoxy)phenyl]-1-(3-methoxyphenyl)-N-(4-[[N-methyl-N-(tetrahydro-2H-pyran-4-yl)amino]methyl]phenyl]-2,3-dihydro-1H-1-benzazepine-4-carboxamide], 94 to 97 °C.
Turning to `CCCCOCCOc1ccc(-c2ccc3c(c2)C=C(C(=O)Nc2ccc(CN(C)C4CCOCC4)cc2)CCN3c2cnc(C)o2)cc1` [Compound 44, 7-[4-(2-butoxyethoxy)phenyl]-1-(2-methyloxazol-5-yl)-N-[4-[[N-methyl-N-(tetrahydro-2H-pyran-4-yl)amino]methyl]phenyl]-2,3-dihydro-1H-1-benzazepine-4-carboxamide], the melting point is 125 to 128 °C.
With `CCCCOCCOc1ccc(-c2ccc3c(c2)C=C(C(=O)Nc2ccc(CN(C)C4CCOCC4)cc2)CCN3c2ccc(S(=O)(=O)N(C)C)cc2)cc1` [Compound 47, 7-[4-(2-butoxyethoxy)phenyl]-1-(N,N-dimethyl-4-sulfamoylphenyl)-N-[4-[[N-methyl-N-(tetrahydro-2H-pyran-4-yl)amino]methyl]phenyl]-2,3-dihydro-1H-1-benzazepine-4-carboxamide] the figure was 94 to 98 °C; with `CCCOCCOc1ccc(-c2ccc3c(c2)C=C(C(=O)Nc2ccc(CN(C)C4CCOCC4)cc2)CCN3Cc2ccccc2OC)cc1` [Compound 51, 1-(2-methoxybenzyl)-N-[4-[[N-methyl-N-(tetrahydropyran-4-yl)amino]methyl]phenyl]-7-(4-propoxyethoxyphenyl)-2,3-dihydro-1-benzazepine-4-carboxamide], 118 to 119 °C.
The value for `CCCCOCCOc1ccc(-c2ccc3c(c2)C=C(C(=O)Nc2ccc(CN(C)C4CCOCC4)cc2)CCN3Cc2ccccc2OC)cc1` [Compound 52, 7-(4-butoxyethoxyphenyl)-1-(2-methoxybenzyl)-N-[4-[[N-methyl-N-(tetrahydropyran-4-yl)amino]methyl]phenyl]-2,3-dihydro-1-benzazepine-4-carboxamide] was 111.5 to 112.5 °C; that for `CCCOCCOc1ccc(-c2ccc3c(c2)C=C(C(=O)Nc2ccc(CN(C)C4CCOCC4)cc2)CCN3Cc2cccc(OC)c2)cc1` [Compound 53, 1-(3-methoxybenzyl)-N-[4-[[N-methyl-N-(tetrahydropyran-4-yl)amino]methyl]phenyl]-7-(4-propoxyethoxyphenyl)-2,3-dihydro-1-benzazepine-4-carboxamide] was 113 to 114 °C.
`CCCCOCCOc1ccc(-c2ccc3c(c2)C=C(C(=O)Nc2ccc(CN(C)C4CCOCC4)cc2)CCN3Cc2cccc(OC)c2)cc1` [Compound 54, 7-(4-butoxyethoxyphenyl)-1-(3-methoxybenzyl)-N-[4-[[N-methyl-N-(tetrahydropyran-4-yl)amino]methyl]phenyl]-2,3-dihydro-1-benzazepine-4-carboxamide] gave a melting point of 107.5 to 108.5 °C.
The value for `CCCOCCOc1ccc(-c2ccc3c(c2)C=C(C(=O)Nc2ccc(CN(C)C4CCOCC4)cc2)CCN3Cc2ccc(OC)cc2)cc1` [Compound 55, 1-(4-methoxybenzyl)-N-[4-[[N-methyl-N-(tetrahydropyran-4-yl)amino]methyl]phenyl]-7-(4-propoxyethoxyphenyl)-2,3-dihydro-1-benzazepine-4-carboxamide] was 160 to 161 °C.

(Values after patent US6936602B1, “Benzazepine derivatives, process for the preparation of the same and uses thereof” (Takeda Chemical Industries, Ltd., priority 1999, dated 2005).)
